In US20110263507A1 (priority 2007, published 2011):
Several values for one entry are separate records, joined by “and”; a condition that tells them apart may be missing. Equal values may be shown once. Read-outs that look alike come from different tables or passages of the source. Where a SMILES comes first, the peptide text is derived from it. Where no end group is shown, it is not given here. [ ]: non-standard residue; d: D form. 1Nal = N[C@@H](Cc1cccc2ccccc12)C(=O)O; NMeR = CN[C@@H](CCCNC(=N)N)C(=O)O; pGlu = O=C1CC[C@@H](C(=O)O)N1; Tle = CC(C)(C)[C@H](N)C(=O)O; dOrn = NCCC[C@@H](N)C(=O)O; Orn = NCCC[C@H](N)C(=O)O; Dab = NCC[C@H](N)C(=O)O

Columns and labels:
hNTS1 = target: T1, hNTS1 (Homo sapiens, UniProt P30989); assay: Radioligand competition binding with [3H]NT, membranes of CHO-K1 cells expressing hNTS1; details: for hNTS1 Selectivity: hNTS1 over hNTS2
T1 construct: expressed in transfected cells; host or cells: CHO-K1
T1 sequence (P30989 whole entry): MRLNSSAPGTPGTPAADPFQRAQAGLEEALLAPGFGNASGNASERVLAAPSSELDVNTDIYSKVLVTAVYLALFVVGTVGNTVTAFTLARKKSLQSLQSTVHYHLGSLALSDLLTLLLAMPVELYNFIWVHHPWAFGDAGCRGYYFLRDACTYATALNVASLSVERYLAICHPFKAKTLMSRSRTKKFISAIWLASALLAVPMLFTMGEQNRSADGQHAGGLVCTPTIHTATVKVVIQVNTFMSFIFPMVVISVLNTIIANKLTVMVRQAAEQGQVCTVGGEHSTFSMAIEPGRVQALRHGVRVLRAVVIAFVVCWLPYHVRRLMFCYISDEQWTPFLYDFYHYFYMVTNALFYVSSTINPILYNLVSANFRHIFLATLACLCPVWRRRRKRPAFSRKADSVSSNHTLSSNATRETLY
Description: CHO-K1 cells that had been stably transfected separately with the hNTS1 or hNTS2 genes were cultured in 150 mm (500 cm^2) Petri plates with 35 ml of Dulbecco's modified Eagle's medium containing 100 μM minimal essential medium nonessential amino acids (Life Technologies, Inc.) supplemented with 5% (v/v) FetalClone II bovine serum product (Hyclone Labs, Logan, Utah). […] The cellular pellet (in Tris-HCl buffer) was stored at […] until the radioligand binding was performed.
For use in binding assays, crude membrane preparations were prepared by centrifugation of the cellular pellet at 35,600×g for 10 min. The supernatant was decanted and discarded, and the cellular pellet was resuspended in 1 ml of Tris-HCl buffer followed by homogenization with a Brinkmann Polytron at setting 5.5 for 15 s. Centrifugation was repeated as above, the supernatant was decanted and discarded, and the cellular pellet was resuspended in 1 ml of Tris-HCl buffer followed by homogenization. Centrifugation was repeated a third time, the supernatant was discarded, and the final cellular pellet was suspended in 0.5-2.5 ml of Tris-HCl buffer. Protein concentration of the membrane preparation was estimated by the method of Lowry et al. using bovine serum albumin as a standard.
Incubation was at 20° C. for 40 min. The assay was routinely terminated by addition of ice-cold 0.9% NaCl (5×1.5 ml), followed by rapid filtration through a GF/B filter strip that had been pretreated with 0.2% or 2% polyethyleneimine. Details of binding assays have been described previously. […] Data were analyzed using the LIGAND program.

hNTS2 = target: T2, hNTS2 (Homo sapiens, UniProt O95665); assay: Radioligand competition binding with [3H]NT, membranes of CHO-K1 cells expressing hNTS2; details: for higher affinity at hNTS2 than the corresponding JMV peptide at mNTS2: NT33 vs JMV 510, NT51 vs JMV 509
T2 construct: expressed in transfected cells; host or cells: CHO-K1
T2 sequence (O95665 whole entry): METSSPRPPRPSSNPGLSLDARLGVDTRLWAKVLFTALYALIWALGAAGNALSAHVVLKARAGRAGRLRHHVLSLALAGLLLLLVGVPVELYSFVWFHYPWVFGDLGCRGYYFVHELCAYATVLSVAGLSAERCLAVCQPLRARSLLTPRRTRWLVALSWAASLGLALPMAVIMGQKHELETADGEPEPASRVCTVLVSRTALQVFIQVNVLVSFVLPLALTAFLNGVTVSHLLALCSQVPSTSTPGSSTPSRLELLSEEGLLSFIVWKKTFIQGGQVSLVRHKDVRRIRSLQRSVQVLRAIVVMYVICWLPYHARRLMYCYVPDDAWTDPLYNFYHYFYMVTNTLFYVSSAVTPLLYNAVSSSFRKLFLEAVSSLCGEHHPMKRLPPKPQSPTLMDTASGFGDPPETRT

[1] = read-out: hNTS1 Geometric Mean ∀ SEM (equilibrium dissociation constant Kd)
[2] = Table 2, read-out: hNTS2 Geometric Mean ∀ SEM (equilibrium dissociation constant Kd)

Row | Compound | hNTS1 Selectivity (hNTS1; Table 2) | hNTS2 Selectivity (hNTS2; Table 2, hNTS2 over hNTS1) | Kd (hNTS1; [1]) | Kd (hNTS2; [2]) | further results
1 | RKPYIL [NT18, [L-Lys^9]NT(8-13)] | 0.8 | 1.3 |  |  | Kd (hNTS1): 1.49 ± 0.09 nM; Kd (hNTS2): 1.18 ± 0.09 nM
2 | CC[C@H](C)[C@H](NC(=O)[C@H](Cc1cccc2ccccc12)NC(=O)[C@@H]1CCCN1C(=O)[C@H](CCCNC(=N)N)NC(=O)[C@H](CCCNC(=N)N)NC(=O)[C@@H]1CCCN1C(=O)[C@H](CCCCN)NC(=O)[C@H](CC(N)=O)NC(=O)[C@H](CCC(=O)O)NC(=O)[C@H](Cc1ccc(O)cc1)NC(=O)[C@H](CC(C)C)NC(=O)[C@@H]1CCC(=O)N1)C(=O)N[C@@H](CC(C)C)C(=O)O [NT62, [L-3,1-Nal^11]NT(1-13)] ([pGlu]LYENKPRRP[1Nal]IL-OH; C-terminus assumed) | 1.7 | 0.6 | 8.4 ± 0.3 nM | 14.2 ± 0.5 nM | 
3 | RRPAIL [NT08, [Ala^11]NT(8-13)] [listing 1 of 2 here] |  |  |  | 58 ± 5 nM | Kd (hNTS1): 2500 ± 200 nM
4 | RRPYVL [NT10, [L-Val^12]NT(8-13)] | 0.8 | 1.3 |  |  | Kd (hNTS1): 11.3 ± 0.6 nM; Kd (hNTS2): 8.8 ± 0.4 nM
5 | CC[C@H](C)[C@H](NC(=O)[C@@H](Cc1ccc(O)cc1)NC(=O)[C@@H]1CCCN1C(=O)[C@@H](CCCN)NC(=O)[C@@H](N)CCCNC(=N)N)C(=O)N[C@@H](CC(C)C)C(=O)O [NT37, [D-Orn^9,D-Tyr^11]NT(8-13)] (H-R[dOrn]P[dY]IL-OH; N-terminus and C-terminus assumed) |  |  |  | 1800 ± 100 nM | binding / Kd at hNTS1 in words (hNTS1; text b54): no detectable binding; Kd at hNTS2 in words (hNTS2; text b54): micromolar Kd's
6 | CC[C@H](C)[C@H](NC(=O)[C@H](Cc1ccc(O)cc1)NC(=O)[C@@H]1CCCN1C(=O)[C@@H](CCCN)NC(=O)[C@@H](N)CCCNC(=N)N)C(=O)N[C@@H](CC(C)C)C(=O)O [NT24, [D-Orn^9]NT(8-13)] (H-R[dOrn]PYIL-OH; N-terminus and C-terminus assumed) | 6.6 | 0.2 | 120 ± 10 nM | 790 ± 20 nM | 
7 | CC[C@H](C)[C@H](NC(=O)[C@H](Cc1ccc(O)cc1)NC(=O)[C@@H]1CCCN1C(=O)[C@H](CCCNC(=N)N)NC(=O)[C@H](N)CCCN)C(=O)N[C@@H](CC(C)C)C(=O)O [NT22, [D-Orn^8]NT(8-13)] (H-[dOrn]RPYIL-OH; N-terminus and C-terminus assumed) | 3.2 | 0.3 | 1.9 ± 0.2 nM | 5.9 ± 0.2 nM | 
8 | CC[C@H](C)[C@H](NC(=O)[C@H](Cc1ccc(O)cc1)NC(=O)[C@@H]1CCCN1C(=O)[C@H](CCCN)NC(=O)[C@H](CCCNC(=N)N)NC(=O)[C@@H]1CCCN1C(=O)[C@H](CCCCN)NC(=O)[C@H](CC(N)=O)NC(=O)[C@H](CCC(=O)O)NC(=O)[C@H](Cc1ccc(O)cc1)NC(=O)[C@H](CC(C)C)NC(=O)[C@@H]1CCC(=O)N1)C(=O)N[C@@H](CC(C)C)C(=O)O [NT60, [L-Orn^9]NT(1-13)] ([pGlu]LYENKPR[Orn]PYIL-OH; C-terminus assumed) | 5.4 | 0.2 | 3.2 ± 0.1 nM | 17 ± 2 nM | 
9 | CC[C@H](C)[C@H](NC(=O)[C@H](Cc1ccc(O)cc1)NC(=O)[C@@H]1CCCN1C(=O)[C@@H](CCCCN)NC(=O)[C@@H](N)CCCNC(=N)N)C(=O)N[C@@H](CC(C)C)C(=O)O [NT03, [D-Lys^9]NT(8-13)] (H-R[dK]PYIL-OH; N-terminus and C-terminus assumed) | 0.4 | 2.5 |  |  | Kd (hNTS1): 690 ± 30 nM; Kd (hNTS2): 280 ± 30 nM
10 | CC[C@H](C)[C@H](NC(=O)[C@H](Cc1ccc(O)cc1)NC(=O)[C@@H]1CCCN1C(=O)[C@H](CCCNC(=N)N)NC(=O)[C@@H](N)CCN)C(=O)N[C@@H](CC(C)C)C(=O)O [NT29, [DAB^8]NT(8-13)] (H-[Dab]RPYIL-OH; N-terminus and C-terminus assumed) | 5.6 | 0.2 | 1.2 ± 0.1 nM | 6.5 ± 0.3 nM | 
11 | CC[C@H](C)[C@H](NC(=O)[C@H](Cc1ccc2ccccc2c1)NC(=O)[C@@H]1CCCN1C(=O)[C@H](CCCNC(=N)N)NC(=O)[C@@H](N)CCCNC(=N)N)C(=O)N[C@@H](CC(C)C)C(=O)O [NT33, [L-3,2-Nal^11]NT(8-13)] |  |  |  | 18 ± 1 nM | higher affinity at hNTS2 than the corresponding JMV peptide at mNTS2 (hNTS2): 12 fold
12 | CC[C@H](C)[C@H](NC(=O)[C@H](Cc1ccc(O)cc1)NC(=O)[C@@H]1CCCN1C(=O)[C@@H](CCCN)NC(=O)[C@H](CCCNC(=N)N)NC(=O)[C@@H]1CCCN1C(=O)[C@H](CCCCN)NC(=O)[C@H](CC(N)=O)NC(=O)[C@H](CCC(=O)O)NC(=O)[C@H](Cc1ccc(O)cc1)NC(=O)[C@H](CC(C)C)NC(=O)[C@@H]1CCC(=O)N1)C(=O)N[C@@H](CC(C)C)C(=O)O [NT61, [D-Orn^9]NT(1-13)] ([pGlu]LYENKPR[dOrn]PYIL-OH; C-terminus assumed) | 4.4 | 0.2 | 1500 ± 100 nM |  | Kd (hNTS2; text b54, read-out: Kd at hNTS2): 6600 nM
13 | [DAB^9,L-neo-Trp^11]NT(9-13) [NT75] | 2.3 | 0.4 |  | 169 ± 8 nM | Kd (hNTS1; Table 2, n.d. = no detectable binding at 1 μM, †/* values published before by the same laboratory, read-out: hNTS1 Geometric Mean ∀ SEM (equilibrium dissociation constant Kd)): 73 ± 5 nM
14 | CC[C@H](C)[C@H](NC(=O)[C@H](Cc1ccc(O)cc1)NC(=O)[C@@H]1CCCN1C(=O)[C@@H](CCCCN)NC(=O)[C@H](N)CCCCN)C(=O)N[C@@H](CC(C)C)C(=O)O [NT20, [D-Lys^8,D-Lys^9]NT(8-13)] |  |  |  |  | Kd (hNTS2): 730 ± 60 nM
15 | CC[C@H](C)[C@H](NC(=O)[C@H](Cc1c[nH]c2ccccc12)NC(=O)[C@@H]1CCCN1C(=O)[C@H](CCCNC(=N)N)NC(=O)[C@H](N)CCCCN)C(=O)N[C@@H](CC(C)C)C(=O)O [NT67T, [D-Lys^8,L-Trp^11]NT(8-13)] (H-[dK]RPWIL-OH; N-terminus and C-terminus assumed) | 0.5 | 2.2 | 17 ± 2 nM | 8 ± 0.4 nM | 
16 | CN[C@@H](CCCNC(=N)N)C(=O)N[C@H](CCCN)C(=O)N1CCC[C@H]1C(=O)N[C@@H](Cc1c[nH]c2ccccc12)C(=O)N[C@H](C(=O)N[C@@H](CC(C)C)C(=O)O)C(C)(C)C [NT78T, [N-methyl-Arg^8,D-Orn^9,L-Trp^11,tert-Leu^12]NT(8-13)] (H-[NMeR][dOrn]PW[Tle]L-OH; N-terminus and C-terminus assumed) | 0.5 | 2.1 | 1400 ± 300 nM | 660 ± 50 nM | 
17 | RRPAIL [NT08, [Ala^11]NT(8-13)] [listing 2 of 2 here] | 0.02 | 43 |  |  | NTS2 Selectivity (hNTS2; Table 3): 43; hNTS2 Selectivity (hNTS2; Table 4): 43
18 | CC[C@H](C)[C@H](NC(=O)[C@H](Cc1ccc(O)cc1)NC(=O)[C@@H]1CCCN1C(=O)[C@H](CCCN)NC(=O)[C@@H](N)CCCNC(=N)N)C(=O)N[C@@H](CC(C)C)C(=O)O [NT23, [L-Orn^9]NT(8-13)] (H-R[Orn]PYIL-OH; N-terminus and C-terminus assumed) | 1.6 | 0.6 | 0.94 ± 0.06 nM | 1.5 ± 0.1 nM | 
19 | CC[C@H](C)[C@H](NC(=O)[C@H](Cc1ccc(O)cc1)NC(=O)[C@@H]1CCCN1C(=O)[C@H](CCCNC(=N)N)NC(=O)[C@H](N)CCCCN)C(=O)N[C@@H](CC(C)C)C(=O)O [NT02, [D-Lys^8]NT(8-13)] (H-[dK]RPYIL-OH; N-terminus and C-terminus assumed) | 4.6 | 0.2 |  | 4.6 ± 0.5 nM | 
20 | CC[C@H](C)[C@H](NC(=O)[C@@H](Cc1ccc2ccccc2c1)NC(=O)[C@@H]1CCCN1C(=O)[C@H](CCCNC(=N)N)NC(=O)[C@@H](N)CCCNC(=N)N)C(=O)N[C@@H](CC(C)C)C(=O)O [NT51, [D-3,2-Nal^11]NT(8-13)] |  |  |  |  | decrease in affinity at NTS2 on changing from L- to D-3,2-Nal (hNTS2; NT33 compared to NT51): < 2 fold; higher affinity at hNTS2 than the corresponding JMV peptide at mNTS2 (hNTS2): 28 fold and ~30 fold; Kd (hNTS2; text, read-out: Kd at hNTS2): 32.9 nM
21 | CC[C@H](C)[C@H](NC(=O)[C@H](Cc1cccc2ccccc12)NC(=O)[C@@H]1CCCN1C(=O)[C@H](CCCNC(=N)N)NC(=O)[C@@H](N)CCCNC(=N)N)C(=O)N[C@@H](CC(C)C)C(=O)O [NT49, [L-3,1-Nal^11]NT(8-13)] |  |  |  | 1.28 ± 0.05 nM | 
22 | CC[C@H](C)[C@H](NC(=O)[C@H](Cc1ccc(O)cc1)NC(=O)[C@@H]1CCCN1C(=O)[C@H](CCCCN)NC(=O)[C@@H](N)CCCCN)C(=O)N[C@@H](CC(C)C)C(=O)O [NT19, [L-Lys^8,L-Lys^9]NT(8-13)] |  |  |  |  | Kd (hNTS2): 2.4 ± 0.3 nM
23 | CC[C@H](C)[C@H](NC(=O)[C@@H]1Cc2ccccc2CN1C(=O)[C@@H]1CCCN1C(=O)[C@H](CCCNC(=N)N)NC(=O)[C@@H](N)CCCNC(=N)N)C(=O)N[C@@H](CC(C)C)C(=O)O [NT47, [L-TIC^11]NT(8-13)] |  |  |  | 14 nM | 
24 | CC[C@H](C)[C@H](NC(=O)[C@H]1Cc2ccccc2CN1C(=O)[C@@H]1CCCN1C(=O)[C@H](CCCNC(=N)N)NC(=O)[C@@H](N)CCCNC(=N)N)C(=O)N[C@@H](CC(C)C)C(=O)O [NT48, [D-TIC^11]NT(8-13)] |  |  |  | 255 nM | 
